Assay [1] concerns TGF-β-stimulated SMAD3 phosphorylation in BEAS-2B cells. The assay can be described thus: Cellular ALK5 potency assay, inhibition of TGF-β stimulated pSMAD3 formation in BEAS-2B cells. Type of assay: cell-based. Conditions: Homo sapiens, pSMAD3, TGF-β 10 ng/mL, read-out: BEAS2B pIC50 (converted). In outline:
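Human lung epithelial BEAS-2B cells were pre-treated with compound for 1 h at 37 °C, then stimulated with TGF-β (final 10 ng/mL) for 30 min before lysis. pSMAD3 was quantified by AlphaLISA and pIC50 derived from dose-dependent signal change versus TGF-β-stimulated untreated cells.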

Assay [2] concerns the target T1, recombinant human ALK5 (TGF-βR1) protein (Homo sapiens, UniProt P36897).
T1 construct: purchased Life Technologies PR9075A
T1 sequence (P36897 34-503): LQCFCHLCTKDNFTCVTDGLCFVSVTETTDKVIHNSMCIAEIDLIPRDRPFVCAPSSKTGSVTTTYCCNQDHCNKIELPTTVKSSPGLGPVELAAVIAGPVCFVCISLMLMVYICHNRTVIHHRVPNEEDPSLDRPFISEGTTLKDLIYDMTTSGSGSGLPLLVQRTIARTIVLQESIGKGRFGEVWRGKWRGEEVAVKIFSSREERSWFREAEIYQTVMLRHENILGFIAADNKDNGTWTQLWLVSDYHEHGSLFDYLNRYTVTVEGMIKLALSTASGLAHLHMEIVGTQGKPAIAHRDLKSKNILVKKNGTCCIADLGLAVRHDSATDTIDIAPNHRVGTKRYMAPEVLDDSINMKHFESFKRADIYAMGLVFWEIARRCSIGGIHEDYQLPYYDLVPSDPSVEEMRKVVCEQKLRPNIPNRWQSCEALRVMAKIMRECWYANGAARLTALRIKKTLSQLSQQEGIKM
The assay is described as follows: Biochemical ALK5 (TGF-βR1) assay to measure pKi (LANCE Ultra ULight kinase assay). Conditions: apparent pKi, converted from pIC50 by Cheng-Prusoff. The essentials: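 Enzyme was preincubated with compound for 60 min at room temperature, then ATP (added from a 125 μM 5× stock with 2 mM DTT) started a 60 min reaction at 37 °C. EDTA plus Eu-anti-phospho-Topo2α (Thr1342) antibody stopped it; TR-FRET pIC50 values were converted to pKi by Cheng-Prusoff.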
(Time-resolved FRET reads energy transfer from a long-lived donor to a nearby acceptor.)

On to `CNCc1ccc(Nc2nccc(Nc3ccnc(-c4cccc(C)n4)n3)n2)cc1` [Compound 503, N2-[4-(methylaminomethyl)phenyl]-N4-[2-(6-methyl-2-pyridyl)pyrimidin-4-yl]pyrimidine-2,4-diamine], for which, in assay [1], the IC50 is 25.1 to 158 nM. Moreover, the Ki in assay [2] is ≤ 0.0316 nM.
Turning to `Cc1cccc(-c2nccc(Nc3ccnc(Nc4csc(C(=O)O[C@@H]5CCN(C)C5)c4)n3)n2)n1` [Compound 504, [(3R)-1-methylpyrrolidin-3-yl] 4-[[4-[[2-(6-methyl-2-pyridyl)pyrimidin-4-yl]amino]pyrimidin-2-yl]amino]thiophene-2-carboxylate], the IC50 in assay [1] was 25.1 to 158 nM. In addition, the Ki in assay [2] was 0.0398 to 0.316 nM.
Regarding `Cc1cccc(-c2nccc(Nc3ccnc(Nc4cccc(C(=O)N5CCNCC5)c4)n3)n2)n1` [Compound 505, [3-[[4-[[2-(6-methyl-2-pyridyl)pyrimidin-4-yl]amino]pyrimidin-2-yl]amino]phenyl]-piperazin-1-yl-methanone], the IC50 in assay [1] was 25.1 to 158 nM. Further, the Ki in assay [2] was 0.398 to 3.16 nM.
For `Cc1cccc(-c2nccc(Nc3ccnc(Nc4ccc(C(=O)O[C@H]5CCN(C)C5)s4)n3)n2)n1` [Compound 507, [(3S)-1-methylpyrrolidin-3-yl] 5-[[4-[[2-(6-methyl-2-pyridyl)pyrimidin-4-yl]amino]pyrimidin-2-yl]amino]thiophene-2-carboxylate], in that order: 25.1 to 158 nM and 0.0398 to 0.316 nM.
As to `Cc1cccc(-c2nccc(Nc3ccnc(Nc4nc(CN5CCC[C@@H](C(=O)O[C@H]6CCN(C)C6)C5)cs4)n3)n2)n1` [Compound 508, (S)-1-methylpyrrolidin-3-yl (R)-1-((2-((4-((2-(6-methylpyridin-2-yl)pyrimidin-4-yl)amino)pyrimidin-2-yl)amino)thiazol-4-yl)methyl)piperidine-3-carboxylate], the IC50 in assay [1] was 25.1 to 158 nM. The Ki in assay [2] is 0.398 to 3.16 nM.
For `Cc1cccc(-c2nccc(Nc3ccnc(Nc4cccc(NC(=O)N5CCN(C)CC5)c4)n3)n2)n1` [Compound 509, 4-methyl-N-[3-[[4-[[2-(6-methyl-2-pyridyl)pyrimidin-4-yl]amino]pyrimidin-2-yl]amino]phenyl]piperazine-1-carboxamide], in that order: 25.1 to 158 nM and 0.0398 to 0.316 nM.
For `Cc1cccc(-c2nccc(Nc3ccnc(Nc4nc(C(=O)N5CCNCC5)cs4)n3)n2)n1` [Compound 510, [2-[[4-[[2-(6-methyl-2-pyridyl)pyrimidin-4-yl]amino]pyrimidin-2-yl]amino]thiazol-4-yl]-piperazin-1-yl-methanone], in that order: 25.1 to 158 nM and 0.0398 to 0.316 nM.
With `COc1cc(Nc2nccc(Nc3ccnc(-c4cccc(C)n4)n3)n2)ccc1NC(=O)C1CCNCC1` [Compound 511, N-[2-methoxy-4-[[4-[[2-(6-methyl-2-pyridyl)pyrimidin-4-yl]amino]pyrimidin-2-yl]amino]phenyl]piperidine-4-carboxamide], the IC50 in assay [1] was 25.1 to 158 nM. Also, in assay [2], the Ki was 0.398 to 3.16 nM.
For `Cc1cccc(-c2nccc(Nc3ccnc(Nc4ccc5[nH]nnc5c4)n3)n2)n1` [Compound 512, N2-(1H-benzotriazol-5-yl)-N4-[2-(6-methyl-2-pyridyl)pyrimidin-4-yl]pyrimidine-2,4-diamine], in that order: 25.1 to 158 nM and 0.398 to 3.16 nM.
For `Cc1cccc(-c2nccc(Nc3ccnc(Nc4ccc(COCCO)cc4)n3)n2)n1` [Compound 513, 2-[[4-[[4-[[2-(6-methyl-2-pyridyl)pyrimidin-4-yl]amino]pyrimidin-2-yl]amino]phenyl]methoxy] ethanol] the same measures were 25.1 to 158 nM and 0.398 to 3.16 nM.
For `Cc1cccc(-c2nccc(Nc3ccnc(Nc4ccc(N)c(C)c4)n3)n2)n1` [Compound 514, N2-(4-amino-3-methyl-phenyl)-N4-[2-(6-methyl-2-pyridyl)pyrimidin-4-yl]pyrimidine-2,4-diamine], in that order: ≤ 20 nM and 0.398 to 3.16 nM.

The values are drawn from patent US20230399312A1, “SUBSTITUTED PYRIMIDINES AND METHODS OF USE” (THERAVANCE BIOPHARMA R&D IP, LLC, priority 2020, published 2023).
